Experimental findings from patent US20060111305A1, “Metabolites of certain [1,4]diazepino[6,7,1-ij]quinoline derivatives and methods of preparation and use thereof” (Wyeth, priority 2004, published 2006) are described below.

For this data set, the system named is cryopreserved human hepatocytes. Put plainly: Incubation of [14C]DCDQ with cryopreserved human hepatocytes. In kind it is in vitro ADME. Particulars: 4 hours. As to the method: Vials containing cryopreserved human hepatocytes were thawed in a 37° C. water bath with gentle shaking until the ice was almost melted. The vials were removed from the water bath and gentle shaking continued at room temperature for 30-60 seconds until completely thawed. The hepatocyte suspensions from each vial were immediately transferred to pre-cooled 50 mL beakers on ice. To each beaker, 12 mL of ice-cold hepatocyte suspension media was added dropwise over one minute, with occasional, gentle shaking by hand to prevent the cells from settling. The cell suspensions were transferred to a 15 mL tube and centrifuged at 100 g force for 3 min at 4° C. (Model T21 super centrifuge, Sorvall). The supernatant was discarded and the pellets were re-suspended in 4 mL of ice-cold hepatocyte culture media. The cell suspensions contained approximately 3.1×10^6 viable hepatocytes/mL. The average viability was 76.0% as determined using Trypan Blue exclusion and a hemacytometer.
The cell suspensions were distributed into 12-well plates at 1.0 mL per well. Incubations were performed using pooled hepatocytes from two donors. [^14C]DCDQ in water was added to the hepatocyte suspension at a final concentration of 10 or 50 μM. Incubations were carried out at 37° C. for 4 hours in an incubator supplied with 5% CO2. At the end of the incubation, the reaction was stopped by the addition of 200 μL cold methanol to each well. The content of each well was transferred to a 15 mL centrifuge tube and sonicated for 30 seconds. After vortex mixing with 6 mL methanol and then centrifugation, the supernatant was transferred to a clean tube and evaporated to about 0.5 mL in a TurboVap evaporator. The residue was analyzed by HPLC and LC/MS.
A Waters model 2690 HPLC system (Waters Corp., Milford, Mass.) with a built-in autosampler was used for analysis. […] A variable wavelength UV detector set to monitor 250 nm and Flo-One β Model A525 radioactivity flow detector (Perkin Elmer) with a 250 μL LQTR flow cell were used for data acquisition. […]

Consider `O=C(O)[C@H]1O[C@@H](OC(=O)N2CCN3C[C@@H]4CCC[C@@H]4c4cccc(c43)C2)[C@H](O)[C@@H](O)[C@@H]1O` [Metabolite M6, carbamoyl glucuronide of DCDQ], for which the “relative abundance of metabolite in human hepatocytes” value (50 μM DCDQ) was “most prominent metabolite”. In the case of `O=C1CC[C@@H]2c3cccc4c3N(CCNC4)C[C@H]12` [Metabolite M7, 17-keto DCDQ], the “metabolite detected in human hepatocyte incubations” value (10 or 50 μM DCDQ) is listed as “detected”.
